Assay results reported in publication PMC4500996, “Ortho-methylated 3-hydroxypyridines hinder hen egg-white lysozyme fibrillogenesis” (Scientific Reports, 2015).

Biological target: T1, hen egg-white lysozyme (HEWL) (Gallus gallus, UniProt P00698)
T1 construct: gene LYZ
Test: intrinsic Trp fluorescence quenching titration ([…] nm), two-site fit in DynaFit
Format: binding
Details: pH 2.0, 37 °C, 2 mM sodium chloroacetate, 10 µM HEWL; stronger of two independent sites; cationic ligand

T1 sequence (P00698 19-147): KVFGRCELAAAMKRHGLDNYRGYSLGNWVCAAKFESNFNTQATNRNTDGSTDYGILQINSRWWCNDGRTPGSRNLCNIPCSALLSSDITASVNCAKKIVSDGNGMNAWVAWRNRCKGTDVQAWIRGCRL

Row | Structure (SMILES) | Ka (M^-1).10^-3( ^a)
1 | Cc1ncccc1O [2 m-3HP, 3-hydroxy-2-methylpyridine] | (9.3 ± 0.2)·10^3
2 | Cc1ccc(O)c(C)n1 [2,6dm-3HP, 3-hydroxy-2,6-dimethylpyridine] | (8.9 ± 0.2)·10^3
3 | Cc1ccc(O)cn1 [6 m-3HP, 3-hydroxy-6-methylpyridine] | (7.4 ± 0.1)·10^3
